Results from article PMC4128710 (Biochemical pharmacology, 2014).
Read-outs that look alike come from different tables or passages of the source.

Assays:
[1] = biological target: T1, A2BAR (Homo sapiens, UniProt P29275); assay: cAMP accumulation in T24 cells endogenously expressing the A2BAR; conditions: for Emax: T-24, read-out: Max effect cAMP (% of effect of NECA)
T1 sequence (P29275 1-332): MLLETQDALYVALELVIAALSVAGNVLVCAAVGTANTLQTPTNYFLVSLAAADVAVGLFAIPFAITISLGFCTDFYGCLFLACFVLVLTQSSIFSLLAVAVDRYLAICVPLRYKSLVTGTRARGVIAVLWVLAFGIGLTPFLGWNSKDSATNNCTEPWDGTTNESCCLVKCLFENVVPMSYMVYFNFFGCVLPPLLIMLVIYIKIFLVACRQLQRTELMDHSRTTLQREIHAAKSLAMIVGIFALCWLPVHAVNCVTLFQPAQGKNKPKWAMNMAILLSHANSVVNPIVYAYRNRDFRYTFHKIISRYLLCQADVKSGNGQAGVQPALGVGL

[2] = test system: A2BAR; assay: cAMP accumulation in COS-7 cells endogenously expressing the A2BAR; conditions: for Max effect cAMP accumulation: NECA = 100; for EC50: read-out: EC50 cAMP accumulation
[3] = test system: mouse A2BAR; assay: β-Arrestin2 translocation in PathHunter CHO cells; conditions: for ΔΔlog (τ/KA): β-Arrestin versus cAMP reference pathway; for Bias: β-Arrestin versus cAMP, bias ≫1 disfavors the pathway
[4] = biological target: T2, mouse A2BAR (Mus musculus, UniProt Q60614); assay: β-Arrestin2 translocation in PathHunter CHO cells; conditions: for Emax: CHO, read-out: Max effect β-arrestin (% of effect of NECA); for log (τ/KA) / τ / Δlog (τ/Ka): β-Arrestin pathway; for τ: operational model, CHO mouse A2BAR; for Δlog (τ/Ka): relative to NECA
T2 sequence (Q60614 1-332): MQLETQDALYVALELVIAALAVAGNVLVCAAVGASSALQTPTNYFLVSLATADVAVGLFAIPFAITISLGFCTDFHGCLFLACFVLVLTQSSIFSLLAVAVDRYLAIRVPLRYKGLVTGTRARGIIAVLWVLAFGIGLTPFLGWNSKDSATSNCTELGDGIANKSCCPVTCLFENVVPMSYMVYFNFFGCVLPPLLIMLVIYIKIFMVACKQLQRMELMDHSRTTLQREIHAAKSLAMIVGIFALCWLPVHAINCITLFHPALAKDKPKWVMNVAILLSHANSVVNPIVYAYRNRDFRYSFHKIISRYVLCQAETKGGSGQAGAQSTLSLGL

[5] = biological target: T1, A2BAR; assay: Intracellular calcium mobilization in HEK293 cells overexpressing the A2BAR; conditions: for τ: operational model, A2BAR-overexpressing HEK293; for Bias: Calcium versus cAMP, bias ≫1 disfavors the pathway
[6] = biological target: T1, A2BAR; assay: cAMP accumulation in WM266 melanoma cells endogenously expressing the A2BAR; conditions: for Emax: WM266, read-out: Max effect cAMP accumulation
[7] = biological target: T1, A2BAR; assay: Intracellular calcium mobilization in T24 cells; conditions: for Emax: T-24, read-out: Max effect Calcium (% of effect of NECA)
[8] = biological target: T1, A2BAR; assay: cAMP accumulation in HEK293 cells overexpressing the A2BAR; conditions: for Emax: HEK293, read-out: Max effect cAMP (% of effect of NECA); for τ: operational model, A2BAR-overexpressing HEK293
[9] = biological target: T1, A2BAR; assay: ERK1/2 phosphorylation in T24 cells; conditions: for Emax: T-24, read-out: Max effect ERK1/2 (% of effect of NECA)
[10] = biological target: T1, A2BAR; assay: ERK1/2 phosphorylation in HEK293 cells overexpressing the A2BAR; conditions: for log (τ/KA) / τ / Δlog (τ/Ka): ERK1/2 pathway; for τ: operational model, A2BAR-overexpressing HEK293; for Δlog (τ/Ka): relative to NECA; for ΔΔlog (τ/KA): ERK1/2 versus cAMP reference pathway; for Bias: ERK1/2 versus cAMP, bias ≫1 disfavors the pathway; for Emax: HEK293, read-out: Max effect ERK1/2 (% of effect of NECA)
[11] = biological target: T1, A2BAR; assay: ERK1/2 phosphorylation in HEK293 cells; conditions: for Emax: HEK293, read-out: Max effect ERK1/2 (% of effect of NECA)
[12] = biological target: T1, A2BAR; assay: Intracellular calcium mobilization in HEK293 cells; conditions: HEK293, read-out: Max effect Calcium (% of effect of NECA)
[13] = biological target: T1, A2BAR; conditions: for Emax: PC-3, read-out: Max effect cAMP accumulation
[14] = biological target: T1, A2BAR; assay: cAMP accumulation in 1321N1 astrocytoma cells endogenously expressing the A2BAR; conditions: for Emax: 1321-N1, read-out: Max effect cAMP accumulation
[15] = biological target: T1, A2BAR; assay: cAMP accumulation in HEK293 cells endogenously expressing the A2BAR; conditions: for Emax: HEK293, read-out: Max effect cAMP (% of effect of NECA)

Nc1nc(OCCc2c[nH]c3ccccc23)nc2c1ncn2[C@@H]1O[C@H](CO)[C@@H](O)[C@H]1O [MRS3534, 2-(2-(indol-3-yl)ethyloxy)adenosine]
EC50 [1]: 2.16 ± 0.35 µM

OC[C@H]1O[C@@H](n2cnc3c(Nc4ccc(I)cc4)ncnc32)[C@H](O)[C@@H]1O [MRS5911, N^6-(4-iodophenyl)adenosine]
Max effect cAMP accumulation [2]: 99.3±2.1% | EC50 [2]: 0.418 ± 0.022 µM | ΔΔlog (τ/KA) [3]: 1.38 | Bias [3]: 24 | EC50 [4]: 48.1 µM | Kd [4]: 83.4 µM | Emax [4]: 40.9 ± 2.9% | log (τ/KA) [4]: 4.10 ± 0.22 | τ [4]: 1.04 | Δlog (τ/Ka) [4]: -1.63 ± 0.20 | EC50 [5]: 7.15 ± 2.36 µM | Kd [5]: 84.7 µM | log (τ/KA) ([5]; Calcium pathway): 3.84 ± 0.19 | τ ([5]; Calcium pathway): 0.59 | Δlog (τ/Ka) ([5]; Calcium pathway, relative to NECA): -1.20 ± 0.13 | Bias [5]: 85 | EC50 [6]: 1.27 ± 0.22 µM | Emax [6]: 48.3 ± 4.9% | EC50 [7]: 6.17 ± 1.99 µM | Emax [7]: 36.9 ± 8.6% | EC50 [8]: 0.0253 ± 0.0078 µM | Kd [8]: 7.76 µM | Emax [8]: 93.2 ± 4.5% | log (τ/KA) ([8]; cAMP pathway): 7.17 ± 0.68 | τ ([8]; cAMP pathway): 116 | Δlog (τ/Ka) ([8]; cAMP pathway, relative to NECA): -0.25 ± 0.02 | ERK1/2 phosphorylation, increase above basal value ([9]; T24 cells, 10 μM): ~13% | Emax [9]: 13.1 ± 4.5% | EC50 [10]: 2.68 ± 0.46 µM | Kd [10]: 5.26 µM | log (τ/KA) [10]: 5.11 ± 0.52 | τ [10]: 0.68 | Δlog (τ/Ka) [10]: -0.52 ± 0.04 | ΔΔlog (τ/KA) [10]: 0.27 | Bias [10]: 1.86 | Emax [10]: 36.3 ± 5.2% | EC50 [11]: 1.53 ± 0.34 µM | Emax [11]: 46.1 ± 9.2% | Emax [12]: 7.1 ± 3.2% | EC50 [13]: 0.321 ± 0.066 µM | Emax [13]: 89.4 ± 2.6% | EC50 [14]: 1.01 ± 0.18 µM | Emax [14]: 89.8 ± 9.2% | EC50 [1]: 0.899 ± 0.226 µM | Emax [1]: 77.7 ± 3.3% | EC50 [15]: 1.13 ± 0.34 µM | Emax [15]: 68.7 ± 11.1%

N#Cc1c(N)nc(SCc2ncc[nH]2)c(C#N)c1-c1ccccc1 [LUF5833, 2-aminophenyl-6-(1H-imidazol-2-ylmethylsulfanyl)pyridine-3,5-dicarbonitrile]
Max effect β-arrestin (% of effect of NECA) ([4]; PathHunter CHO cells, mouse A2BAR): 9.7 ±0.6%

Nc1nc(OCCc2c[nH]c3cc(Br)ccc23)nc2c1ncn2[C@@H]1O[C@H](CO)[C@@H](O)[C@H]1O [MRS3997, 2-(2-(6-bromo-indol-3-yl)ethyloxy)adenosine]
Max effect cAMP accumulation [2]: 100±6% | EC50 [2]: 0.226 ± 0.032 µM | ΔΔlog (τ/KA) [3]: 2.15 | Bias [3]: 141 | Kd [4]: 18.1 µM | Emax [4]: 28.1 ± 3.5% | log (τ/KA) [4]: 4.17 ± 0.23 | τ [4]: 0.27 | Δlog (τ/Ka) [4]: -1.56 ± 0.18 | Kd [5]: 7.1 µM | log (τ/KA) ([5]; Calcium pathway): 3.35 ± 0.44 | τ ([5]; Calcium pathway): 0.02 | ΔΔlog (τ/KA) ([5]; Calcium versus cAMP reference pathway): 4.06 | Bias [5]: 11500 | EC50 [6]: 1.87 ± 0.32 µM | Emax [6]: 96.2 ± 1.8% | Emax [7]: -2.7 ± 3.2% | EC50 [8]: 0.0629 ± 0.0076 µM | Kd [8]: 6.7 µM | Emax [8]: 102 ± 6.6% | log (τ/KA) ([8]; cAMP pathway): 6.83 ± 0.45 | τ ([8]; cAMP pathway): 45.1 | ERK1/2 stimulation ([9]; T24 cells): did not produce any stimulation | Emax [9]: -8.2 ± 7.6% | EC50 [10]: 0.203 ± 0.048 µM | Kd [10]: 0.362 µM | log (τ/KA) [10]: 6.08 ± 0.89 | τ [10]: 0.44 | Δlog (τ/Ka) [10]: 0.45 ± 0.03 | ΔΔlog (τ/KA) [10]: 0.14 | Bias [10]: 1.38 | Emax [10]: 29.7 ± 2.6% | EC50 [11]: 0.166 ± 0.032 µM | Emax [11]: 42.3 ± 9.4% | Emax [12]: 1.6 ± 2.2% | EC50 [13]: 0.48 ± 0.032 µM | Emax [13]: 98.2 ± 7.7% | EC50 [14]: 1.26 ± 0.18 µM | Emax [14]: 98.4 ± 3.1% | EC50 [1]: 0.745 ± 0.225 µM | Emax [1]: 94.9 ± 2.2% | EC50 [15]: 1.02 ± 0.25 µM | Emax [15]: 96.2 ± 24.3%

Nc1nc(Nc2ccccc2)nc2c1ncn2[C@@H]1O[C@H](CO)[C@@H](O)[C@H]1O [CV1808, 2-phenylaminoadenosine]
EC50 [1]: 9.1 ± 5.8 µM
